According to US20170283425A1, “COMPOUNDS FOR THE INHIBITION OF CYCLOPHILINS AND USES THEREOF” (Merck Patent GmbH, priority 2016, published 2017):

Assays:
CypD [1] = molecular target: T1, CypD (Homo sapiens, UniProt P30405); experiment: CypD binding assay (competition fluorescence polarisation with fluorescein-labelled cyclosporin)
Method: The binding capacity of the compounds were measured using a competition Fluorescence-Polarisation based assay with fluorescine labelled cyclosporin. The protocol used was adapted from Hausch et al, Med Chem lett 2010, p 536.

CypD [2] = molecular target: T1, CypD; experiment: SPR binding; conditions: SPR surface; read-out: SPR CypD (KDSS)
Text: Binding was confirmed on an SPR surface using a protocol adapted from Mori et al., J. Biomolecular Screening, 2009 p 419.

T1 sequence (P30405 30-207): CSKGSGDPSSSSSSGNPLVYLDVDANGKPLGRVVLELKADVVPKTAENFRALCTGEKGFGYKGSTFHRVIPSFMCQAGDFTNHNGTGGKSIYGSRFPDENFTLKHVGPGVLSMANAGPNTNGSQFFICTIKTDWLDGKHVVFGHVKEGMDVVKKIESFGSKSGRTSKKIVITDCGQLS

Compound | IC50 (CypD [1]) [µM] | Kd (CypD [2]) [µM]
3-((1R,9R,10S)-10-Hydroxy-12-oxa-8-aza-tricyclo[7.3.1.02,7]trideca-2(7),3,5-trien-4-yl)-N-(2-oxo-2-pyrrolidin-1-yl-ethyl)-propionamide [Compound 26] | 1 to 100 | 1 to 100
CSc1ccccc1[C@H]1CCCN1C(=O)CCC(=O)NCc1ccc2c(c1)[C@H]1C[C@@H](N2)[C@H](O)CO1 [Compound 2, N-((1R,9R,10S)-10-Hydroxy-12-oxa-8-aza-tricyclo[7.3.1.02,7]trideca-2,4,6-trien-4-ylmethyl)-4-[(R)-2-(2-methylsulfanyl-phenyl)-pyrrolidin-1-yl]-4-oxo-butyramide] | < 1 | < 1
CCN1Cc2cc(CNC(=O)NCC(=O)N3CCC[C@@H]3c3ccccc3SC)ccc2NCCC1=O [Compound 3, 1-(5-Ethyl-4-oxo-1,2,3,4,5,6-hexahydro-benzo[b][1,5]diazocin-8-ylmethyl)-3-{2-[(R)-2-(2-methylsulfanyl-phenyl)-pyrrolidin-1-yl]-2-oxo-ethyl}-urea] | < 1 | < 1
CSc1ccccc1[C@H]1CCCN1C(=O)CNC(=O)CCc1ccc2c(c1)[C@H]1C[C@@H](N2)[C@H](O)CO1 [Compound 5, 3-((1R,9R,10S)-10-Hydroxy-12-oxa-8-aza-tricyclo[7.3.1.02,7]trideca-2(7),3,5-trien-4-yl)-N-{2-[(R)-2-(2-methylsulfanyl-phenyl)-pyrrolidin-1-yl]-2-oxo-ethyl}-propionamide] | < 1 | < 1
C[C@H](NC(=O)CCc1ccc2c(c1)[C@H]1C[C@@H](N2)[C@H](O)CO1)C(=O)N1CCCC1 [Compound 6, 3-((2R,3S,6R)-3-hydroxy-2,3,4,6-tetrahydro-1H-2,6-methanobenzo[c][1,5]oxazocin-8-yl)-N—((S)-1-oxo-1-(pyrrolidin-1-yl)propan-2-yl)propanamide] | 1 to 100 | 1 to 100
O=C(NCC(=O)N1CCC[C@@H]1C(F)(F)F)NCc1ccc2c(c1)[C@H]1C[C@@H](N2)[C@H](O)CO1 [Compound 8, 1-(((2R,3S,6R)-3-hydroxy-2,3,4,6-tetrahydro-1H-2,6-methanobenzo[c][1,5]oxazocin-8-yl)methyl)-3-(2-oxo-2-((R)-2-(trifluoromethyl)pyrrolidin-1-yl)ethyl)urea] | 1 to 100 | 1 to 100
O=C(NCC(=O)N1CCCC1c1ccccn1)NCc1ccc2c(c1)[C@H]1C[C@@H](N2)[C@H](O)CO1 (stereo partly drawn) [Compound 9, 1-(((2R,3S,6R)-3-hydroxy-2,3,4,6-tetrahydro-1H-2,6-methanobenzo[c][1,5]oxazocin-8-yl)methyl)-3-(2-oxo-2-(2-(pyridin-2-yl)pyrrolidin-1-yl)ethyl)urea] | 1 to 100 | < 1
O=C(NCC(=O)N1CCC[C@@H]1CO)NCc1ccc2c(c1)[C@H]1C[C@@H](N2)[C@H](O)CO1 [Compound 14, 1-(((2R,3S,6R)-3-hydroxy-2,3,4,6-tetrahydro-1H-2,6-methanobenzo[c][1,5]oxazocin-8-yl)methyl)-3-(2-((R)-2-(hydroxymethyl)pyrrolidin-1-yl)-2-oxoethyl)urea] | 1 to 100 | 1 to 100
CCN1Cc2cc(CNC(=O)NCC(=O)N3CCCC3c3ccccc3C(F)(F)F)ccc2NCCC1=O (stereo not drawn) [Compound 15, 1-(5-Ethyl-4-oxo-1,2,3,4,5,6-hexahydro-benzo[b][1,5]diazocin-8-ylmethyl)-3-{2-oxo-2-[2-(2-trifluoromethyl-phenyl)-pyrrolidin-1-yl]-ethyl}-urea] | 1 to 100 | 1 to 100
CSc1ccccc1[C@H]1CCCN1C(=O)CN(C)C(=O)NCc1ccc2c(c1)[C@H]1C[C@@H](N2)[C@H](O)CO1 [Compound 16, 3-((1R,9R,10S)-10-Hydroxy-12-oxa-8-aza-tricyclo[7.3.1.02,7]trideca-2(7),3,5-trien-4-ylmethyl)-1-methyl-1-{2-[(R)-2-(2-methylsulfanyl-phenyl)-pyrrolidin-1-yl]-2-oxo-ethyl}-urea] | 1 to 100 | 1 to 100
O=C(NCC(=O)N1CCCC1c1ccccc1C(F)(F)F)NCc1ccc2c(c1)[C@@H]1C[C@H](N2)[C@H](O)CO1 (stereo partly drawn) [Compound 17, 1-(((2S,3S,6S)-3-hydroxy-2,3,4,6-tetrahydro-1H-2,6-methanobenzo[c][1,5]oxazocin-8-yl)methyl)-3-(2-oxo-2-(2-(2-(trifluoromethyl)phenyl)pyrrolidin-1-yl)ethyl)urea] | 1 to 100 | 1 to 100
O=C(NCC(=O)N1CCCC1c1cccnc1)NCc1ccc2c(c1)[C@H]1C[C@@H](N2)[C@H](O)CO1 (stereo partly drawn) [Compound 18, 1-((1R,9R,10S)-10-Hydroxy-12-oxa-8-aza-tricyclo[7.3.1.02,7]trideca-2(7),3,5-trien-4-ylmethyl)-3-[2-oxo-2-(2-pyridin-3-yl-pyrrolidin-1-yl)-ethyl]-urea] | 1 to 100 | 1 to 100
CCN1Cc2cc(CNC(=O)NCC(=O)N3CCC[C@H]3CO)ccc2NCCC1=O [Compound 22, 1-(5-Ethyl-4-oxo-1,2,3,4,5,6-hexahydro-benzo[b][1,5]diazocin-8-ylmethyl)-3-[2-((S)-2-hydroxymethyl-pyrrolidin-1-yl)-2-oxo-ethyl]-urea] | 1 to 100 | 1 to 100
CSc1ccccc1[C@H]1CCCN1C(=O)CNC(=O)CCc1ccc2c(c1)[C@@H]1C[C@H](N2)[C@H](O)CO1 [Compound 23, 3-((2S,3S,6S)-3-hydroxy-2,3,4,6-tetrahydro-1H-2,6-methanobenzo[c][1,5]oxazocin-8-yl)-N-(2-((R)-2-(2-(methylthio)phenyl)pyrrolidin-1-yl)-2-oxoethyl)propanamide] | 1 to 100 | 1 to 100
CCN1Cc2cc(CCC(=O)NCC(=O)N3CCCC4(CCCCC4)C3)ccc2NCCC1=O [Compound 25, N-[2-(2-Aza-spiro[5.5]undec-2-yl)-2-oxo-ethyl]-3-(5-ethyl-4-oxo-1,2,3,4,5,6-hexahydro-benzo[b][1,5]diazocin-8-yl)-propionamide] | 1 to 100 | 1 to 100
CCN1Cc2cc(CCC(=O)NCC(=O)N3CCCC3)ccc2NCCC1=O [Compound 27, 3-(5-Ethyl-4-oxo-1,2,3,4,5,6-hexahydro-benzo[b][1,5]diazocin-8-yl)-N-(2-oxo-2-pyrrolidin-1-yl-ethyl)-propionamide] | 1 to 100 | 1 to 100
CCN1Cc2cc(CCC(=O)N[C@@H](CO)C(=O)N3CCCC3)ccc2NCCC1=O [Compound 29, 3-(5-Ethyl-4-oxo-1,2,3,4,5,6-hexahydro-benzo[b][1,5]diazocin-8-yl)-N—((S)-1-hydroxymethyl-2-oxo-2-pyrrolidin-1-yl-ethyl)-propionamide] | 1 to 100 | 1 to 100
CCN1Cc2cc(CCC(=O)NCC(=O)N3CCC[C@@H]3C(F)(F)F)ccc2NCCC1=O [Compound 30, 3-(5-Ethyl-4-oxo-1,2,3,4,5,6-hexahydro-benzo[b][1,5]diazocin-8-yl)-N-[2-oxo-2-((R)-2-trifluoromethyl-pyrrolidin-1-yl)-ethyl]-propionamide] | 1 to 100 | 1 to 100
CCN1Cc2cc(CCC(=O)NCC(=O)N(C)[C@H](C)c3ccccc3)ccc2NCCC1=O [Compound 31, (R)-3-(5-ethyl-4-oxo-1,2,3,4,5,6-hexahydrobenzo[b][1,5]diazocin-8-yl)-N-(2-(methyl(1-phenylethyl)amino)-2-oxoethyl)propanamide] | 1 to 100 | 1 to 100

Now from value to compound:

IC50 (CypD [1]) [µM] | Kd (CypD [2]) [µM] | Compound
< 1 | < 1 | O=C(NCC(=O)N1CCCC1c1ccccc1C(F)(F)F)NCc1ccc2c(c1)[C@H]1C[C@@H](N2)[C@H](O)CO1 (stereo partly drawn) [Compound 4]
1 to 100 | 1 to 100 | CCN1Cc2cc(CCC(=O)NCC(=O)N3CCC[C@@H]3c3ccccc3SC)ccc2NCCC1=O [Compound 11, 3-(5-Ethyl-4-oxo-1,2,3,4,5,6-hexahydro-benzo[b][1,5]diazocin-8-yl)-N-{2-[(R)-2-(2-methylsulfanyl-phenyl)-pyrrolidin-1-yl]-2-oxo-ethyl}-propionamide]
1 to 100 | 1 to 100 | O=C(NCC(=O)N1CCC[C@H]1CO)NCc1ccc2c(c1)[C@H]1C[C@@H](N2)[C@H](O)CO1 [Compound 13, 1-(((2R,3S,6R)-3-hydroxy-2,3,4,6-tetrahydro-1H-2,6-methanobenzo[c][1,5]oxazocin-8-yl)methyl)-3-(2-((S)-2-(hydroxymethyl)pyrrolidin-1-yl)-2-oxoethyl)urea]
1 to 100 | 1 to 100 | CCN1Cc2cc(CCC(=O)NCC(=O)N3CCCC3c3ccccc3C(F)(F)F)ccc2NCCC1=O (stereo not drawn) [Compound 19, 3-(5-Ethyl-4-oxo-1,2,3,4,5,6-hexahydro-benzo[b][1,5]diazocin-8-yl)-N-{2-oxo-2-[2-(2-trifluoromethyl-phenyl)-pyrrolidin-1-yl]-ethyl}-propionamide]
1 to 100 | 1 to 100 | CN(C(=O)CNC(=O)NCc1ccc2c(c1)[C@H]1C[C@@H](N2)[C@H](O)CO1)C1CCCC1 [Compound 20, N-cyclopentyl-2-(3-(((2R,3S,6R)-3-hydroxy-2,3,4,6-tetrahydro-1H-2,6-methanobenzo[c][1,5]oxazocin-8-yl)methyl)ureido)-N-methylacetamide]
1 to 100 | 1 to 100 | CSc1ccccc1[C@H]1CCCN1C(=O)CNC(=O)NC(C)c1ccc2c(c1)CCCC(=O)N2 (stereo partly drawn) [Compound 21, 1-{2-[(R)-2-(2-Methylsulfanyl-phenyl)-pyrrolidin-1-yl]-2-oxo-ethyl}-3-[1-(2-oxo-2,3,4,5-tetrahydro-1H-benzo[b]azepin-7-yl)-ethyl]-urea]
1 to 100 | 1 to 100 | CCN1Cc2cc(CNC(=O)NCC(=O)N3CCC[C@@H]3C(F)(F)F)ccc2NCCC1=O [Compound 24, 1-(5-Ethyl-4-oxo-1,2,3,4,5,6-hexahydro-benzo[b][1,5]diazocin-8-ylmethyl)-3-[2-oxo-2-((R)-2-trifluoromethyl-pyrrolidin-1-yl)-ethyl]-urea]
1 to 100 | 1 to 100 | CCN1Cc2cc(CCC(=O)NCC(=O)N3CCCC3c3ccccn3)ccc2NCCC1=O (stereo not drawn) [Compound 28, 3-(5-Ethyl-4-oxo-1,2,3,4,5,6-hexahydro-benzo[b][1,5]diazocin-8-yl)-N-[2-oxo-2-(2-pyridin-2-yl-pyrrolidin-1-yl)-ethyl]-propionamide]
